# Experimental data from patent publication US20240131204A1, “Fractionated Dosing of a Phospholipid Ether Analog for the Treatment of Cancer” (Cellectar Biosciences, Inc., priority 2019, published 2024).
# Columns and labels:
# [1] = test system: xenograft, orthotopic and transgenic cancer and cancer stem cell derived animal models; settings: radioiodinated CLR1404; cited from earlier work
# [2] = test system: OPM-2 cell line (human multiple myeloma); assay: OPM-2 multiple myeloma subcutaneous xenograft in CB17 SCID mice (tumor volume, doubling time, survival, body weight); type: in vivo; settings: for tolerability: repeated/fractionated dosing versus the single equal dose
# Protocol: The OPM-2 cell line (human multiple myeloma) was purchased from American Type Culture Collection (ATCC, Rockville, MD) and maintained in McCoy's 5a media supplemented with 10% fetal bovine serum. Female CB17 SCID mice approximately 5-7 weeks of age were injected subcutaneously with 1×10^7 viable cells (in ˜100 μL Dulbecco's PBS) into the right flank. The study was initiated when tumor size had reached a pre-determined size (approximately 150-200 mm3). The mice were given potassium iodide at a concentration of 0.1% in their drinking water to block possible free iodide in the drug formulation three days prior to injection and continuing through two weeks post-injection. Mice were randomly assigned to dose groups. Tumor volume was measured with a caliper during the course of the study. Tumor doubling time calculation TDT=D×log(2)/log(1+r/100), where D equals days between measurements and r=rate of growth; r/100=(V2−V1/V1)×100%. Statistical analysis: 1-way Anova, Dunnett's test.
# [3] = test system: xenograft, orthotopic and transgenic cancer and cancer stem cell derived animal models; assay: Tumor selectivity, uptake and retention in animal tumor models; type: in vivo; settings: variety of tumor models
# [4] = Clinical trial: single bolus dose (Cohort 4) versus fractionated dose (Cohort 5); type: in vivo, human
# Protocol: Dosing is based upon body surface area or BSA in millicuries/meter squared (mCi/m^2). Patients either received a single 30 minute infusion of 31.25 mCi/m^2 on day 1 or a 30 minute fractionated infusion dose of 15.625 mCi/m^2 on day 1 and then repeated on day 8.
Compound,tumor selectivity (models showing it / models tested) [1],tolerability [2],sequestration and retention by cancer cells and cancer stem cells [3],average reduction in surrogate markers of efficacy ([4]; fractionated dose (Cohort 5)) [%],"average progression free survival ([4]; fractionated dose (Cohort 5), assessment ongoing) [months]","median overall survival ([4]; fractionated dose, 15.625 mCi/m^2 on day 1 and day 8 (Cohort 5), assessment still ongoing) [months]",average progression free survival ([4]; single bolus dose (Cohort 4)) [months],average reduction in surrogate markers of efficacy ([4]; single bolus dose (Cohort 4)) [%],"median overall survival ([4]; single bolus dose, 31.25 mCi/m^2 on day 1 (Cohort 4)) [months]","antitumor activity ([2]; all doses, model of multiple myeloma)",survival ([2]; fractionated dosing),tumor doubling time ([2]; fractionated dosing versus all other treatments),"reduction in tumor volume vs control ([2]; fractionated dosing, after day 26)","reduction in tumor volume vs all other treatments ([2]; fractionated dosing, day 52, p<0.05)"
C[N+](C)(C)CCOP(=O)([O-])OCCCCCCCCCCCCCCCCCCc1ccc(I)cc1 [CLR1404],55/60,well tolerated and is better tolerated than a single equal dose,sequestered and selectively retained,,,,,,,,,,,
^131I-labeled 18-(p-iodo-phenyl)octadecyl phosphocholine [CLR 131],,well tolerated and better tolerated than the single equal dose,,40,2.9,7.4,2.8,29,6.5,marked antitumor activity,statistically significant survival benefit,markedly increased,statistically significant reduction,statistically significant reduction
